Where two headings read alike, the source gives them in different places.
What was measured:
Human red blood cells [1] = details: red cells of human, 1 h
Protocol: (§10) Human red blood cells were washed with 1 × PBS buffer, then centrifuged at 700 g for 10 min. After discarding the top clear solution, the bottom cells were diluted to obtain 5% solution using 1 × PBS buffer.
(§11) Then, 50 μL of cell solution was injected into 96-well plates. Following this, 50 μL of synthesized compounds with different concentrations from 250 to 1.95 μg/mL were added into 96-well plates. Then, the mixture was incubated for 1 h at 37 °C. After centrifuging at 3500× g rpm for 10 min, 30 μL of the supernatant was transferred into a new 96-well plate with 100 μL of 1 × PBS buffer. With the same microplate reader, the data of absorbance at 540 nm were compared. Positive control: 2% Triton-100. Calculation formula: percentage of hemolysis = [(Absorbance of sample-Absorbance of PBS)/(Absorbance of Triton-Absorbance of PBS)] × 100

Human red blood cells [2] = test: Hemolytic activity; details: HC50 over MIC against MRSA
Protocol: as §10, §11

E. coli (ATCC 25922) = format: cell-based; details: ATCC 25922, 16 h
Protocol: (§1) Chemical reagents and solvents were bought from Sigma Aldrich, Oakwood, TCI, and Chem-Impex. Final products were purified with Waters Breeze 2 HPLC and lyophilized using Labconco lyophilizer. HPLC traces of the final product were collected using 5–95% acetonitrile in water with 0.1% HPLC-grade TFA for at least 40 min. The nuclear magnetic resonance (NMR) data were collected using the Agilent 600 MHz NEO instrument. High-resolution mass spectra of compounds (Table S1) were collected using an Agilent Technologies 6540 UHD accurate-mass Q-TOF LC/MS spectrometer. Antibacterial assays and mechanism of action studies were performed using a Biotec multimode microplate reader synergy H4. Six different species of bacteria were used for bacteria assay tests, such as MRSA (ATCC 33591), MRSE (RP62A), VREF (ATCC 700802), E. coli (ATCC 25922), K. pneumoniae (ATCC 13383), and P. aeruginosa (ATCC 27853).
(§2) Concisely, E. coli, K. pneumoniae, P. aeruginosa, MRSA, MRSE, and VREF were cultivated in 37 °C TSB medium for 16 h. Subsequently, 4 ml of new TSB medium was added to 100 μL of cultivated bacterial solution and incubated for another 6 h to reach the mid-log phase. Next, 96-well plates were injected with 50 μL of bacterial solution that reached mid-log phase and 50 μL of compounds with different concentrations, which ranged from 0.75–25 μg/mL. Then, the 96-wells plates were incubated for another 16 h at 37 °C. After 16 h, MICs were determined by a multimode microplate reader.

MRSA (ATCC 33591) = format: cell-based, methicillin-resistant Staphylococcus aureus
Protocol: as §1, §2

E. coli [3] = test: Time-kill kinetics study; format: cell-based; details: 4 × MIC and 8 × MIC, TSB medium
Protocol: (§3) To evaluate how rapidly bacteria could be eradicated, the lead compound YW-1 was examined for its ability to eradicate MRSA and E. coli by studying the time-kill kinetics.
(§4) Different concentrations of YW-1 and ciprofloxacin were mixed with 300 μL of mid-log phase bacterial solution in TSB medium. The mixture was incubated for 0, 10, and 30 min and 1 and 2 h, respectively. At the time, E. coli were diluted 100-fold, and the MRSA was diluted 100-fold. A total of 100 μL of each was transferred on TSB agar plates. After 16 h at 37 °C, CFUs were read using the Biotec multimode microplate reader.

E. coli [4] = test: Inner membrane (IM) permeabilization (ONPG hydrolysis assay); format: cell-based; details: 8 × MIC, 4 × MIC, 2 × MIC and 1 × MIC, 37 °C
Protocol: We next used the o-nitrophenyl-β-d-galactopyranoside (ONPG) hydrolysis assay to test the ability of the lead compound YW-1 to permeabilize the inner membrane of Gram-negative bacteria (Figure 3B). If the lead compound YW-1 compromised the bacterial inner membrane, ONPG would interact with the cytoplasmic enzyme β-galactosidase to form o-nitrophenol, which can be measured under OD 420 nm.
Mid-log phase E. coli was obtained in Mueller Hinton Broth with 2% lactose at 37 °C; then, it was centrifuged at 3000× g rpm for 10 min at 4 °C and washed with 20 mM glucose and 1.5 mM ONPG in […] HEPES buffer one time. Next, the bacterial solution was diluted until OD600 = 0.1 using the same buffer. Following this, 50 μL of diluted bacterial solution was injected into a 96-well plate, and 50 μL of YW-1 in different concentrations and melittin were injected into the bacterial solution, respectively. The OD420 was read at 37 °C every 6 min until the […] reached the highest plateau.

MRSA [5] = test: Transmission electron microscopy (TEM); format: cell-based, methicillin-resistant Staphylococcus aureus; details: 2 × MIC, 2 h
Protocol: (§5) TEM microscopy offers convenient access to check the intactness of cell membranes. The cell membranes of MRSA and E. coli were intact.
(§6) An amount of 30 μL of mid-log phase MRSA and E. coli was diluted to 3 mL in TSB medium with 2 × MIC of YW-1, and the mixture was incubated for 2 h. The bacterial pellets were centrifuged at 3000× g rpm for 10 min. For the next step, PBS buffer was used to wash three times. Then, the suspended bacterial samples were dropped on grids and dried in a vacuum oven at 45 °C. TEM images were obtained using a FEI Morgagni 268D TEM, with an Olympus MegaView III CAMERA on the microscope, at 60 kV.

MRSA [6] = test: Time-kill kinetics study; format: cell-based, methicillin-resistant Staphylococcus aureus; details: 4 × MIC and 8 × MIC, TSB medium
Protocol: as §3, §4

MRSA [7] = test: Fluorescence microscopy (DAPI / PI staining); format: cell-based, methicillin-resistant Staphylococcus aureus; details: 2 × MIC, 2 h at 37 °C, PI channel
Protocol: (§7) To further assess that the bacteria were killed with YW-1 by comprising the cell membrane, we conducted a fluorescence microscopy experiment. Two dyes, 4′,6-diamidino-2-phenylindole (DAPI) and propidium iodide (PI), were employed in this experiment. […] Instead, DAPI can be used to stain both dead and live cells because it is cell-permeable.
(§8) A total of 30 μL of mid-log phase bacterial solution was diluted to 3 mL in TSB medium with 2 × MIC of YW-1. The mixture was incubated for 2 h at 37 °C. Following this, the bacterial solution was centrifuged at 3000 rpm for 10 min. The top solution was thrown away, the bottom bacterial pellets were washed with PBS buffer, and PI (5 μg/mL) and DAPI (10 μg/mL) were added sequentially on ice under a dark environment. After dyeing with PI and DAPI, the bacterial cells were washed with PBS buffer. Immediately after 100 μL of PBS was added to suspend the bacterial cell, 10 μL of the suspended solution was dropped onto the slide, and data were obtained using a Zeiss Axiovert 200 inverted microscope.

E. coli [8] = test: Membrane depolarization study (diSC35 dye); format: cell-based
Excerpt: (§9) To probe the mechanism of antibacterial activity, we first carried out a membrane depolarization study with the membrane potential-sensitive dye 3,3′-dipropylthiadicarbocyanine iodide (diSC35) (Figure 2A,B). […] However, if the membrane is disrupted, and the fluorophore is released from the membrane, fluorescence will improve dramatically.

E. coli [9] = test: Transmission electron microscopy (TEM); format: cell-based; details: 2 × MIC, 2 h
Protocol: as §5, §6

E. coli [10] = test: Fluorescence microscopy (DAPI / PI staining); format: cell-based; details: 2 × MIC, 2 h at 37 °C, PI channel
Protocol: as §7, §8

MRSA [11] = test: Membrane depolarization study (diSC35 dye); format: cell-based, methicillin-resistant Staphylococcus aureus
Excerpt: as §9

MRSE (RP62A) = format: cell-based; details: 16 h
Protocol: as §1, §2

[12] = system: P. aeruginosa (ATCC 27853); format: cell-based; details: ATCC 27853, 16 h
Protocol: as §1, §2

E.F. (VREF, ATCC 700802) = format: cell-based; details: ATCC 700802, 16 h
Protocol: as §1, §2

[13] = system: K. pneumoniae (ATCC 13383); format: cell-based; details: ATCC 13383, 16 h
Protocol: as §1, §2

E. coli [14] = test: Outer membrane (OM) permeabilization (NPN uptake); format: cell-based; details: 1 × MIC, compared with 1% Triton
Excerpt: Next, using E. coli as a microorganism, we evaluated the OM permeabilization of YW-1. In aqueous conditions, 1-N-Phenylnaphthylamine (NPN) is blocked by the cell wall. However, if the OM is permeabilized, and NPN is taken up as a result, the fluorescence intensity will increase, compared to non-treated OM [13].

MRSA [15] = test: Drug resistance study (serial passages); format: cell-based, methicillin-resistant Staphylococcus aureus; details: after 14 generations
Protocol: Since the abuse of antibiotics, antibacterial drug resistance has become an increasingly serious threat. Thus, it is of great importance to assess the drug resistance of newly developed lead compounds.
The first generation of MIC data of YW-1 against MRSA and E. coli was already obtained in an MIC study. Then, the MRSA of the first generation in the well next to the last clear well was diluted to the mid-log phase, and MICs were tested at 37 °C. This step was repeated for 14 passages. The data of drug resistance for E. coli were obtained using the same method with bacterial E. coli.

[16] = TSB medium, 16 h at 37 °C, compounds 0.75–25 μg/mL, microplate reader

SMILES | HC50 (Human red blood cells [1]) [µg/mL] | Selectivity Index (HC50/MICMRSA) (Human red blood cells [2]) | MIC, Gram-Negative (−), E. coli (E. coli (ATCC 25922)) [µg/mL] | MIC, Gram-Positive (+), MRSA (MRSA (ATCC 33591); ATCC 33591, 16 h) [µg/mL] | MIC, Gram-Positive (+), MRSA (MRSA (ATCC 33591); [16]) [µg/mL] | MIC, Gram-Positive (+), MRSE (MRSE (RP62A)) [µg/mL] | MIC, Gram-Negative (−), P.A. [12] [µg/mL] | MIC, Gram-Positive (+), E.F. (E.F. (VREF, ATCC 700802)) [µg/mL] | MIC, Gram-Negative (−), K.P. [13] [µg/mL] | further results
CCCCCCCCCCCCCCCC(=O)N[C@@H](CO)CN(CC(N)=O)C(=O)CCN(C[C@@H](N)CCCCN)C(=O)CCN [YW-5] | >125 | >41.7 | 6 to 12.5 | 1.5 to 3 |  |  |  |  |  | 
CCCCCCCCCCCCCCCC(=O)N[C@@H](CCCCN)CN(CC(N)=O)C(=O)CCN(C[C@@H](N)CCCCN)C(=O)CCN [YW-6] | >125 | >83.3 | 6 to 12.5 |  | 0.75 to 1.5 |  |  |  |  | 
CCCCCCCCCCCCCCCC(=O)N[C@@H](CC(C)C)CN(CC(N)=O)C(=O)CCN(C[C@@H](N)CCCCN)C(=O)CCN [YW-1] | >125 | >41.7 | 3.0 to 6.0 | 1.5 to 3 |  | 1.5 to 3 | 6 to 12.5 | 1.5 to 3 | 12.5 to 25 | time to remove bacteria thoroughly (E. coli [3]): ≤ 2 h; inner membrane permeabilization, OD 420 nm intensity (E. coli [4]): enhanced to a great extent; membrane intactness by TEM (MRSA [5]): the membranes clearly demonstrated damages; time to remove bacteria thoroughly (MRSA [6]): ≤ 2 h; PI staining (compromised membrane) (MRSA [7]): red fluorescence was observed under the PI channel; fluorescence intensity of diSC35 (membrane depolarization) (E. coli [8]; E. coli treated with different concentrations): dose-dependent increases in fluorescence intensity; fluorescence of diSC35 compared with positive control Triton (E. coli [8]; E. coli, at a two-fold of MIC or above): even more intensive fluorescence than the positive control Triton; membrane intactness by TEM (E. coli [9]): the membranes clearly demonstrated damages; PI staining (compromised membrane) (E. coli [10]): red fluorescence was observed under the PI channel; fluorescence intensity of diSC35 (membrane depolarization) (MRSA [11]; MRSA treated with different concentrations): dose-dependent increases in fluorescence intensity; fluorescence of diSC35 compared with positive control Triton (MRSA [11]; MRSA, at a two-fold of MIC or above): even more intensive fluorescence than the positive control Triton; Outer membrane permeability (E. coli [14]): 98%; increase in MIC (drug resistance) (MRSA [15]): did not have an obvious change in MIC
CCCCCCCCCCCCCCCC(=O)N[C@@H](CCCCNC(=N)N)CN(CC(N)=O)C(=O)CCN(C[C@@H](N)CCCCN)C(=O)CCN [YW-7] | >125 | >83.3 | 3.0 to 6.0 |  | 0.75 to 1.5 | 3.0 to 6.0 | 12.5 to 25 | 3.0 to 6.0 | >25 | 
CCCCCCCCCCCCCCCC(=O)N[C@@H](Cc1ccccc1)CN(CC(N)=O)C(=O)CCN(C[C@@H](N)CCCCN)C(=O)CCN [YW-2] | >125 | >41.7 | 3.0 to 6.0 | 1.5 to 3 |  | 1.5 to 3 | 12.5 to 25 | 1.5 to 3 | 6 to 12.5 | 
CCCCCCCCCCCCCCCC(=O)N[C@@H](C)CN(CC(N)=O)C(=O)CCN(C[C@@H](N)CCCCN)C(=O)CCN [YW-3] | >125 | >83.3 | 3.0 to 6.0 |  | 0.75 to 1.5 | 6 to 12.5 | 6 to 12.5 | 3.0 to 6.0 | >25 | 
O=C(O)c1cn(C2CC2)c2cc(N3CCNCC3)c(F)cc2c1=O [ciprofloxacin, reference compound] |  |  |  |  |  |  |  |  |  | increase in MIC (drug resistance) (MRSA [15]): about 100 fold
CCCCCCCCCCCCCCCC(=O)N[C@@H](Cc1ccc(O)cc1)CN(CC(N)=O)C(=O)CCN(C[C@@H](N)CCCCN)C(=O)CCN [YW-4] | >125 | >83.3 | 3.0 to 6.0 |  | 0.75 to 1.5 | 3.0 to 6.0 | >25 | 3.0 to 6.0 | >25 | 
